Measured values: ChEMBL document CHEMBL3046528, “Pharmacophore-based 3D-QSAR study of fungal chitin synthase inhibitors” (Med Chem Res, 2013)

target: Chitin synthase (Candida albicans, UniProt P30572+P23316+P30573); experiment: Inhibition of Candida albicans chitin synthase; format: protein assay

Row | Structure (SMILES) | pIC50
1 | CC(C)[C@H](N)C(=O)OC1Cc2c(cccc2N(C)CC#CC#CC(C)(C)C)NC1=O (some centres not stated) | 4.422
2 | CCCCN(C/C=C/C#CC(C)(C)C)c1cccc2c1CCC(=O)N2 | 5.985
3 | CN(CC#CC#CC(C)(C)O)c1cccc2c1CCC(=O)N2 | 3.143
4 | CC(C)(C)C#C/C=C/CN(Cc1ccccc1)c1cccc2c1CCC(=O)N2 | 3.839
5 | CN(CC#CC#CC(C)(C)C)c1cccc2c1CC(O)C(=O)N2 (configuration not stated) | 5.015
6 | CCOP(=O)(OCC)OC1Cc2c(cccc2N(C)CC#CC#CC(C)(C)C)NC1=O (configuration not stated) | 5.769
7 | CN(CC#CC#CC(C)(C)C)c1cccc2c1CC(N)C(=O)N2 (configuration not stated) | 4.401
8 | CC(C)(C)C#C/C=C/CNc1cccc2c1CCC(=O)N2 | 3.6
9 | CCC#CC#CCN(C)c1cccc2c1CCC(=O)N2 | 4.529
10 | CC(C)N(C/C=C/C#CC(C)(C)C)c1cccc2c1CCC(=O)N2 | 5.421
11 | CN(C/C=C/C#CC(C)(C)C)c1cccc2c1CCC(=O)N2 | 5.029
12 | CN(CCCC#CC(C)(C)C)c1cccc2c1CCC(=O)N2 | 4.523
13 | CCCCCN(C/C=C/C#CC(C)(C)C)c1cccc2c1CCC(=O)N2 | 5.506
14 | CN(CC#CC#CC(C)(C)C)c1cccc2c1CCC(=O)N2 | 6.323
15 | CCCN(C/C=C/C#CC(C)(C)C)c1cccc2c1CCC(=O)N2 | 5.679
16 | CCN(C/C=C/C#CC(C)(C)C)c1cccc2c1CCC(=O)N2 | 5.538
17 | CN(Cc1ccc(C#CC(C)(C)C)cc1)c1cccc2c1CCC(=O)N2 | 4.681

target: T1, Chitin synthase 3 (Saccharomyces cerevisiae S288c, UniProt P29465); experiment: Inhibition of Saccharomyces cerevisiae chitin synthase
T1 sequence (P29465 whole entry): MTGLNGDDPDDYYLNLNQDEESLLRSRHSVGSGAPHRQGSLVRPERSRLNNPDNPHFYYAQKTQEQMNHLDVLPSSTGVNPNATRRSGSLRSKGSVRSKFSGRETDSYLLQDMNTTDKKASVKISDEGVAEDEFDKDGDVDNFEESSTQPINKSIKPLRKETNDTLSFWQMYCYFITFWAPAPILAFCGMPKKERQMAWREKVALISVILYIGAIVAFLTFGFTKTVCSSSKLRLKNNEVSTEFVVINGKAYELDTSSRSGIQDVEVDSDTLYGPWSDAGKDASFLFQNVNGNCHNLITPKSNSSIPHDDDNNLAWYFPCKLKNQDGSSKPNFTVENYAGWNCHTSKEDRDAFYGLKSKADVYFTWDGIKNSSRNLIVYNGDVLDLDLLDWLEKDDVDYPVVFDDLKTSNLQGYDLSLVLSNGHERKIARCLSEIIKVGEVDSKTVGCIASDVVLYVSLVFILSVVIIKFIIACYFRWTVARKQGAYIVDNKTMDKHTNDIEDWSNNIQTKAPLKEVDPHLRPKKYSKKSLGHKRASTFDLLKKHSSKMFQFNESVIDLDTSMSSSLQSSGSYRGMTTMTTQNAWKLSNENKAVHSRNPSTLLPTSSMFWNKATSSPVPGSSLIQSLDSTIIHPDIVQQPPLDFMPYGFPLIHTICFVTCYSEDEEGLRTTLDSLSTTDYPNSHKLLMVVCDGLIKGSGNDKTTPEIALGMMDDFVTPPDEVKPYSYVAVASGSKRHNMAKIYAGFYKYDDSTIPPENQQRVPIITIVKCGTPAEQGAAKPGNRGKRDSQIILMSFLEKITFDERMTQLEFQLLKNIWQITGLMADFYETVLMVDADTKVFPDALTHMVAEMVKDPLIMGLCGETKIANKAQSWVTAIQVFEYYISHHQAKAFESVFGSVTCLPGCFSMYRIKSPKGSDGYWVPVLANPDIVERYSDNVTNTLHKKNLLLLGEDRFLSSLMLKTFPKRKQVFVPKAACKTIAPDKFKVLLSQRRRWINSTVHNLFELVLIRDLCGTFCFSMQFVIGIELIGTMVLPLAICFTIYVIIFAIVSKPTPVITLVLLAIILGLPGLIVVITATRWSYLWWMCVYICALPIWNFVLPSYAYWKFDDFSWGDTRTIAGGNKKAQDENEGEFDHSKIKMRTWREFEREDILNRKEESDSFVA

Row | Structure (SMILES) | IC50 [µM]
18 | O=C(/C=C/c1ccc2ccccc2c1)c1ccccc1 | 94.2
19 | COc1ccc(/C=C/C(=O)c2ccccc2)c(OC)c1 | 372
20 | O=C(/C=C/c1ccco1)c1ccc(Cl)cc1Cl | 824
21 | COc1cccc(/C=C/C(=O)c2ccccc2)c1OC | 298
22 | COc1ccc(/C=C/C(=O)c2ccccc2)cc1OC | 372
